pIC50: −log10 of the molar value. Where a name gives a salt, the structure may show the parent alone.
Target: mouse SPNS2 (Mus musculus (Mouse), UniProt Q91VM4)
Assay: S1P Transporter Assay (S1P release from whole cells expressing SPNS2)
Assay type: cell-based
Conditions: in vitro inhibition against SPNS2; HeLa cells expressing mouse SPNS2, S1P release into media after 18 hours; compounds as their pharmaceutical salts
Description: Transporter assays are vectorial and therefore require measurement of the transported analyte in different compartments. The S1P transporter SPNS2 only exports S1P, which obviates measuring uptake of S1P into transporter-expressing cells. Thus, transporter activity was determined by quantifying S1P release from whole cells expressing SPNS2. SPNS2 inhibitor potency was assessed using whole cell assays. HeLa cells expressing mouse SPNS2 were used to determine inhibitor potency (IC50). Cells were plated onto 12 well plates and assayed when the cell monolayers became confluent. Cell growth media (RPMI-1640 containing 10% fetal bovine serum) was replaced with 2 mL of serum-free media (RPMI-1640) containing fatty acid free bovine serum albumin (BSA) (0.2 % w/v) and supplemented with 4-deoxypyridoxine (DOP) (1 mM), NaF (2 mM), Na3VO4 (0.2 mM) to inhibit S1P degradation. Test articles (1 × 10-9 - 1 × 10^-4 M) were assayed in duplicate or triplicate. After 18 hours, media was collected, an internal recovery standard (0.005 mL of 5 × 10^-7 M deuterated (d7) S 1P in methanol) was added, the BSA was precipitated with trichloroacetic acid and the bound S1P extracted with methanol. S1P and S1P-d7 were measured by liquid chromatography mass spectrometry. Inhibitor potency at the human SPNS2 ortholog was determined by an analogous assay using U-937 cells, which endogenously express human SPNS2.

Chain of mouse SPNS2 (Q91VM4 whole entry): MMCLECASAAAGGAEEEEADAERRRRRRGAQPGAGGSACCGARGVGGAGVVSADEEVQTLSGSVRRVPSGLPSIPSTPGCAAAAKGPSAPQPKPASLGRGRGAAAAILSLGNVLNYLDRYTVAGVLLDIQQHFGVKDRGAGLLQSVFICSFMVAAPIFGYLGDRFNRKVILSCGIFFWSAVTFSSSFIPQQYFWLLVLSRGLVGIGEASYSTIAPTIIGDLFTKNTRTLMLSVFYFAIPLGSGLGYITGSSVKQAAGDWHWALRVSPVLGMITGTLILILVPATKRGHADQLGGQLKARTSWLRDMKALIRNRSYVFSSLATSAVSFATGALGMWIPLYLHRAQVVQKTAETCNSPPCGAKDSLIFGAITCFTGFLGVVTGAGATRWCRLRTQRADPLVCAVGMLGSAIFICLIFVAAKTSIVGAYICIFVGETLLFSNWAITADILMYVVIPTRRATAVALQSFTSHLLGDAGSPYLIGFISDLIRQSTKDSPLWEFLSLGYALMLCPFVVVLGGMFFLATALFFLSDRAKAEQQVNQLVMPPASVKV

| pIC50 | SMILES |
| --- | --- |
| < 5.70 | CCCCCCCCCCc1cccc2oc(NCCCN)nc12 [Compound 13x, N^1-decylbenzo[d]oxazol-2-yl)propane-1,3-diamine hydrochloride] |
| < 5.70 | CCCCCCCCCCc1ccc2oc(NCCCCCN)nc2c1 [Compound 13h, N^1-decylbenzo[d]oxazol-2-yl)pentane-1,5-diamine hydrochloride] |
| < 5.70 | CCCCCCCCCCc1ccc2nc(NCCN)sc2c1 [Compound 17a, N^1-decylbenzo[d]thiazol-2-yl)ethane-1,2-diamine hydrochloride] |
| < 5.70 | CCCCCCCCCCc1cccc2nc(NCCN)oc12 [Compound 13u, N^1-decylbenzo[d]oxazol-2-yl)ethane-1,2-diamine hydrochloride] |
| ≥ 5.70 | CCCCCCCCCCc1ccc(NC(=O)NCCCN)cc1 [Compound 20b, 1-Aminopropyl)-3-(4-decylphenyl)urea Hydrochloride] |
| ≥ 5.70 | CCCCCCCCCCc1ccc(C(=O)N2CCNCC2)cc1 [Compound 26c, Decylphenyl)(piperazin-1-yl)methanone Hydrochloride] |
| ≥ 5.70 | CCCCCCCCCCc1ccc(NC(=O)N2CCC(N)CC2)cc1 [Compound 20a, 4-amino-N-(4-decylphenyl)piperidine-1-carboxamide Hydrochloride] |
| < 5.70 | CCCCCCCCCCc1ccc2oc(NC3CNC3)nc2c1 [Compound 13i, N-(azetidin-3-yl)-5-decylbenzo[d]oxazol-2-amine 2,2,2-trifluoroacetate] |
| < 5.70 | CCCCCCCCCCc1ccc(NC(=O)OCCN)cc1 [Compound 23a, 2-Aminoethyl (4-decylphenyl)carbamate Hydrochloride] |
| ≥ 5.70 | CCCCCCCCCCc1ccc2oc(N[C@@H]3CNC[C@@H]3F)nc2c1 [Compound 13l, 5-decyl-N-((3R,4S)-4-fluoropyrrolidin-3-yl)benzo[d]oxazol-2-amine hydrochloride] |
| < 5.70 | CCCCCCCCCCc1ccc2nc(NCCCN)oc2c1 [Compound 13r, N^1-decylbenzo[d]oxazol-2-yl)propane-1,3-diamine hydrochloride] |
| < 5.70 | CCCCCCCCCCc1ccc2nc(N3CC[C@H](N)C3)oc2c1 [Compound 13z, (S)(6-decylbenzo[d]oxazol-2-yl)pyrrolidin-3-amine Hydrochloride] |
| < 5.70 | CCCCCCCCCCc1ccc2nc(N3CC[C@@H](N)C3)oc2c1 [Compound 13aa, (R)(6-decylbenzo[d]oxazol-2-yl)pyrrolidin-3-amine Hydrochloride] |
| < 5.70 | CCCCCCCCCCc1ccc2nc(NCCN)oc2c1 [Compound 13q, N^1-decylbenzo[d]oxazol-2-yl)ethane-1,2-diamine hydrochloride] |
| < 5.70 | CCCCCCCCCCCc1ccc2oc(NCCN)nc2c1 [Compound 13d, N^1-undecylbenzo[d]oxazol-2-yl)ethane-1,2-diamine hydrochloride] |
| < 5.70 | CCCCCCCCc1ccc2oc(NCCN)nc2c1 [Compound 13a, N^1-octylbenzo[d]oxazol-2-yl)ethane-1,2-diamine hydrochloride] |

| pIC50 | SMILES |
| --- | --- |
| ≥ 5.70 | CCCCCCCCCCc1ccc(NC(=O)O[C@@H]2CCNC2)cc1 [Compound 23c, (R)-pyrrolidin-3-yl (4-decylphenyl)carbamate Hydrochloride] |
| < 5.70 | CCCCCCCCCCc1ccc2oc(N3CCNCC3)nc2c1 [Compound 13p, 5-Decyl(piperazin-1-yl)benzo[d]oxazole Hydrochloride] |
| < 5.70 | CCCCCCCCCc1ccc2oc(NCCN)nc2c1 [Compound 13b, N^1-nonylbenzo[d]oxazol-2-yl)ethane-1,2-diamine hydrochloride] |
| < 5.70 | CCCCCCCCCCc1ccc2oc(NCCCN)nc2c1 [Compound 13f, hydrochloride] |
| ≥ 5.70 | CCCCCCCCCCc1ccc2nc(NC3CCNCC3)oc2c1 [Compound 13ab, 6-decyl-N-(piperidin-4-yl)benzo[d]oxazol-2-amine Hydrochloride] |
| < 5.70 | CCCCCCCCCCc1ccc2oc(N3CC[C@@H](N)C3)nc2c1 [Compound 13o, (R)(5-decylbenzo[d]oxazol-2-yl)pyrrolidin-3-amine Hydrochloride] |
| < 5.70 | CCCCCCCCCCc1ccc(NC(=O)O[C@H]2CCNC2)cc1 [Compound 23b, (S)-pyrrolidin-3-yl (4-decylphenyl)carbamate Hydrochloride] |
| ≥ 5.70 | CCCCCCCCCCc1ccc2oc(NC3CCNCC3)nc2c1 [Compound 13m, 5-decyl-N-(piperidin-4-yl)benzo[d]oxazol-2-amine Hydrochloride] |
| < 5.70 | CCCCCCCCCCc1ccc2oc(NCCCCN)nc2c1 [Compound 13g, N^1-decylbenzo[d]oxazol-2-yl)butane-1,4-diamine carbamate hydrochloride] |
| < 5.70 | CCCCCCCCCCc1ccc2oc(N3CC[C@H](N)C3)nc2c1 [Compound 13n, (S)(5-decylbenzo[d]oxazol-2-yl)pyrrolidin-3-amine Hydrochloride] |
| < 5.70 | CCCCCCCCCCCCc1ccc2oc(NCCN)nc2c1 [Compound 13e, N^1-dodecylbenzo[d]oxazol-2-yl)ethane-1,2-diamine hydrochloride] |
| < 5.70 | CCCCCCCCCCc1ccc2oc(NCCN)nc2c1 [Compound 13c, N^1-decylbenzo[d]oxazol-2-yl)ethane-1,2-diamine hydrochloride] |
| < 5.70 | CCCCCCCCCCc1ccc2nc(NCCCN)sc2c1 [Compound 17b, N^1-decylbenzo[d]thiazol-2-yl)propane-1,3-diamine hydrochloride] |
| ≥ 5.70 | CCCCCCCCCCc1ccc2nc(N(CCN)CCN)oc2c1 [Compound 13y, N1-aminoethyl)-N1-(6-decylbenzo[d]oxazol-2-yl)ethane-1,2-diamine dihydrochloride] |
| < 5.70 | CCCCCCCCCCc1cccc2oc(NCCN)nc12 [Compound 13w, N^1-decylbenzo[d]oxazol-2-yl)ethane-1,2-diamine hydrochloride] |

More lines, now with the values behind:

| SMILES | pIC50 |
| --- | --- |
| CCCCCCCCCc1ccc(NC(=O)CCCN)cc1 [Compound 2g, 4-amino-N-(4-nonylphenyl)butanamide Hydrochloride] | < 5.70 |
| CCCCCCCCCCc1ccc(NC(=O)C2CCNCC2)cc1 [Compound 2o, N-decylphenyl)piperidine-4-carboxamide Hydrochloride] | < 5.70 |
| CCCCCCCCCCc1ccc(NC(=O)CCCN)cc1 [Compound 2c, 4-amino-N-(4-decylphenyl)butanamide Hydrochloride] | ≥ 5.70 |
| CCCCCCCCCCc1ccc(NC(=O)CCN)cc1 [Compound 2d, 3-amino-N-(4-decylphenyl)propanamide Hydrochloride] | ≥ 5.70 |
| CCCCCCCCCCc1ccc2oc(CCN)nc2c1 [Compound 8a, 2-Decylbenzo[d]oxazol-2-yl)ethan-1-amine Hydrochloride] | < 5.70 |
| CCCCCCCCCCc1ccc(NC(=O)CCCNC(=N)N)cc1 [Compound 4c, N-decylphenyl)-4-guanidinobutanamide Hydrochloride] | ≥ 5.70 |
| CCCCCCCCCCc1ccc(NC(=O)CCCN)c(F)c1 [Compound 2l, amino-N-decyl-2-fluorophenyl)butanamide Hydrochloride] | < 5.70 |
| CCCCCCCCCCc1ccc(NC(=O)[C@@H]2CCCN(C(=N)N)C2)cc1 [Compound 4a, (R)carbamimidoyl-N-(4-decylphenyl)piperidine-3-carboxamide 2,2,2-trifluoroacetate] | ≥ 5.70 |
| CCCCCCCCCCc1ccc2nc(CCN)oc2c1 [Compound 8d, 2-Decylbenzo[d]oxazol-2-yl)ethan-1-amine Hydrochloride] | < 5.70 |
| CCCCCCCCCCc1ccc2nc(CCCN)[nH]c2c1 [Compound 31, 3-decyl-1H-benzo[d]imidazol-2-yl)propan-1-amine Hydrochloride] | < 5.70 |
| CCCCCCCCCCc1ccc(NC(=O)N2CCNCC2)cc1 [Compound 35, N-decylphenyl)piperazine-1-carboxamide Hydrochloride] | ≥ 5.70 |
| CCCCCCCCCCc1ccc(NC(=O)CCCN(C)C)cc1 [Compound 2p, 4-(dimethylamino)-N-(4-decylphenyl)butanamide Hydrochloride] | < 5.70 |
| CCCCCCCCc1ccc(NC(=O)CCCN)cc1 [Compound 2h, 4-amino-N-(4-octylphenyl)butanamide Hydrochloride] | < 5.70 |
| CCCCCCCCCCc1ccc(NC(=O)N[C@H]2CCNC2)cc1 [Compound 34, (S)(4-decylphenyl)-3-(pyrrolidin-3-yl)urea Hydrochloride] | ≥ 5.70 |
| CCCCCCCCCCc1ccc2oc(NCC3CCNCC3)nc2c1 [Compound 36, 5-decyl-N-(piperidin-4-ylmethyl)benzo[d]oxazol-2-amine] | < 5.70 |
| CCCCCCCCCCc1ccc(NC(=O)C[C@@H]2CCNC2)cc1 [Compound 2i, (S)-N-decylphenyl)-2-(pyrrolidin-3-yl)acetamide Hydrochloride] | ≥ 5.70 |
| CCCCCCCCCOc1ccc(NC(=O)CCCN)cc1C(F)(F)F [Compound 2m, 4-amino-N-(4-(nonyloxy)-3-(trifluoromethyl)phenyl)butanamide hydrochloride] | < 5.70 |
| CCCCCCCCCCc1ccc(NC(=O)C[C@H]2CCNC2)cc1 [Compound 2j, (R)-N-decylphenyl)-2-(pyrrolidin-3-yl)acetamide Hydrochloride] | ≥ 5.70 |
